Assay results taken from patent publication US20160216259A1, “ISOTHERMAL TITRATION CALORIMETRY METHODS FOR EVALUATION OF THERMODYNAMIC BINDING PROPERTIES” (The Penn State Research Foundation, priority 2015, published 2016).
Several values for one entry are separate records, joined by “and”; a condition that tells them apart may be missing. Identical values can stand only once. Like-named read-outs stand apart in the source and are kept apart here. Marks after values point to notes of the source that are not given here.

What was measured:
avidin [1] = target: T1, avidin (Gallus gallus, UniProt P02701); settings: reported; pH 6.8; cited from earlier work
T1 construct: purchased Sigma-Aldrich
T1 sequence (P02701 25-152): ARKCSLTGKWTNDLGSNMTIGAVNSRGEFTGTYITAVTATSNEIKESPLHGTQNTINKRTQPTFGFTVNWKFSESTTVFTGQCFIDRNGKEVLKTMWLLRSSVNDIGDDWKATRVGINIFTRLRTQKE

avidin [2] = target: T1, avidin; experiment: Continuous injection ITC, single independent binding of lipoic acid to avidin; settings: 1 mM lipoic acid, continuous 0.1 mL/h into 25 μM avidin, 25° C., pH 6.6
Method: (§1) The molecular weight of avidin (12.8 units per mg protein) was used as 66000 g/mol. […] […] HEPES (1 mM) was used as the buffer solution.
(§2) The continuous titrations were performed on a VP-ITC (Malvern Instruments, Westborough, Mass.) with a cell volume of 1.4 mL. The incremental titrations were performed on a NanoITC (TA Instruments, Lindon, Utah) with a cell volume of 1 mL. ITC experiments were carried out at 25° C. and the stirring speed was 270 rpm and 250 rpm for the continuous titration and incremental titration, respectively. For manipulating injection rate, a PHD 2000 syringe pump (Harvard Apparatus, Holliston, Mass.) was connected to the injection syringe of the VP-ITC.
Injection rate for the continuous injection mode was 0.1 mL/h. The fit for the continuous injection method was done after 12 μM of ligand was injected. […] Injection rate for the continuous injection mode is 0.1 mL/h. The fit for the continuous injection method was done after […] of ligand was injected.

[3] = Tricine pH 8.5, 25° C.; for ln K1 / ln K2: EDTA/DPTA mixture, 99% CI in parentheses; for ln K: real-time evaluation from data at inflection points, continuous 7.2 μL/min
Method: The pH of these solutions was adjusted to 8.5 with 1 M NaOH solution. For the single independent binding site and two independent binding sites experiments, Tricine (20 mM) was used as a buffer solution. For the competitive binding site experiment, HEPES (20 mM) was used as a buffer solution.
The titrations were performed on a NanoITC (TA Instruments, New Castle, Del.) with gold cells with a cell volume of 1 mL. ITC experiments were carried out at 25° C. and the stirring speed was 250 rpm. For the single independent binding experiment, ligand of 20 mM in 100 μL syringe and for the competitive binding site and two independent binding sites model, ligand of 10 mM in 250 μL syringe were used. The injection rate was varied 1.7-10 μL/min for the continuous injection mode under setting tab in ITCRun software. During the equilibration, mass transfer of ligand at the tip of the injection syringe reduces the integrated heat of the first injection. The first data point for the incremental injection mode and data for the initial 10 μL of injection for the continuous injection mode is excluded for data fitting with binding models due to reduced amount of the heat flow.
By changing the concentration of EDTA and DPTA in the mixture, the various binding stoichiometry of the receptor, n and m, were simulated. […] The number of injections for the incremental injection mode experiment is 40 with an injection volume of 6 μL. Injection rate for the continuous injection mode is 7.2 μL/min.
The fit for the continuous injection method was done after 0.05 mM of ligand was injected. […] The positive peaks of the binding isotherms in the raw data (top) represent the exothermic heat of binding.

[4] = 1 mM EDTA + 4 mM BaCl2, HEPES pH 8.5, 25° C.
Method: The pH of these solutions was adjusted to 8.5 with 1 M NaOH solution. […] For the competitive binding site experiment, HEPES (20 mM) was used as a buffer solution.
Injection rate for the continuous injection mode is 10 μL/min.
The fit for the continuous injection method was done after 0.1 mM of ligand was injected. […] The positive peaks of the binding isotherms in the raw data (top) represent the exothermic heat of binding.

avidin [5] = target: T1, avidin; experiment: Continuous injection ITC, binding of desthiobiotin to avidin, single independent binding site model; settings: 0.5 mM desthiobiotin, continuous 25 μL/h into 12.5 μM avidin, 25° C., pH 7.2
Method: as §1, §2

avidin [6] = target: T1, avidin; experiment: Continuous injection ITC, competitive binding of desthiobiotin to avidin mixed with lipoic acid; settings: pH 6.6
Method: as §1, §2
[…] The fit for the continuous injection method was done after 12 μM of ligand was injected. […] […] The fit for the continuous injection method was done after […] of ligand was injected.

[7] = for ln K: Tricine pH 8.5, 25° C.
Method: The titrations were performed on a NanoITC (TA Instruments, New Castle, Del.) with gold cells with a cell volume of 1 mL. ITC experiments were carried out at 25° C. and the stirring speed was 250 rpm. For the single independent binding experiment, ligand of 20 mM in 100 μL syringe and for the competitive binding site and two independent binding sites model, ligand of 10 mM in 250 μL syringe were used. The injection rate was varied 1.7-10 μL/min for the continuous injection mode under setting tab in ITCRun software. […] The first data point for the incremental injection mode and data for the initial 10 μL of injection for the continuous injection mode is excluded for data fitting with binding models due to reduced amount of the heat flow.
Binding of Ba^2+ and EDTA were performed and analyzed with the single independent binding site model in order to obtain the confidence intervals depending on the number of injections.
The number of injections for the incremental injection experiment was 36 with an injection volume of 2.5 μL. An injection rate of 1.7 μL/min was utilized in the continuous injection experiment. The fit for the continuous injection method was done after 0.1 mM of ligand had been injected.
The experimental time for incremental injection mode experiment was ˜6.5 h (36 injections), while the continuous injection experiment completed within ˜1 h.

[8] = continuous injection 7.2 μL/min
[9] = incremental, 40 injections of 6 μL
[10] = apparent, 12.5 μM avidin mixed with 0.75 mM lipoic acid, 25° C.

O=C(O)CCCCC1CCSS1 (stereo not drawn) [Lipoic acid, α-Lipoic acid]
Kd (avidin [1]): 700 nM
ΔH1 (avidin [2]): -9.95 kcal/mol
Kd (avidin [2]; read-out: Kd1): 520 nM

O.O.O.O.O=[N+]([O-])[O-].O=[N+]([O-])[O-].[Ca+2] [Ca(NO3)2, Calcium nitrate tetrahydrate]
ln K1 [3, 8]: 18.11 (18.07, 18.15)
ln K2 [3, 8]: 11.27 (11.25, 11.30)
ln K1 [3, 9]: 19.50 (18.98, 20.33)
ln K2 [3, 9]: 11.42 (11.14, 11.69)
ln K ([3]; association of Ca^2+ and DPTA): 12.24^g
ln K ([3]; association of Ca^2+ and EDTA): 18.98^f
ln K ([4]; continuous injection 10 μL/min, 99% CI in parentheses): 20.535 (20.52, 20.55)
ln K ([4]; incremental, 20 injections of 10 μL, 99% CI in parentheses): 20.47 (20.3, 20.6)
ln K ([4]; real-time evaluation from data at inflection point, continuous injection 10 μL/min): 20.64

C[C@@H]1NC(=O)N[C@@H]1CCCCCC(=O)O [desthiobiotin, d-desthiobiotin]
ΔH (avidin [5]): -17.55 kcal/mol
m (avidin [6]; 0.5 mM desthiobiotin, 25 μL/h into 12.5 μM avidin mixed with 0.75 mM lipoic acid, 25° C.): 0.294
Kd,app (avidin [6]; [10]): 1.04 nM
ΔHapp (avidin [6]; [10]): -9.74 kcal/mol
ΔH (avidin [6]; evaluated by competitive binding method from lipoic acid and apparent parameters): -19.7 kcal/mol

[Ba+2].[Cl-].[Cl-] [BaCl2, barium chloride]
K2 ([7]; Ba^2+ and EDTA, obtained independently by incremental injection, input for the competitive model, listed as Ba^2+): 1.36e+06 M⁻¹
ln K ([7]; continuous injection 1.7 μL/min, 99% confidence interval in parentheses): 14.15 (14.13, 14.16) and 14.11 (14.09, 14.03) and 13.73 (13.71, 13.75)
ln K ([7]; incremental injection, 9 injections, 99% confidence interval in parentheses): 14.26 (13.5, 16.7) and 14.14 (13.0, 16.5) and 13.99 (13.4, 14.6)
ln K ([7]; incremental injection, 18 injections, 99% confidence interval in parentheses): 14.07 (13.6, 14.6) and 14.05 (13.8, 14.5) and 13.88 (13.3, 14.8)
ln K ([7]; incremental injection, 36 injections, 99% confidence interval in parentheses): 14.07 (13.8, 14.4) and 14.13 (13.9, 14.4) and 14.02 (13.8, 14.3)
ln K ([7]; real-time evaluation from data at inflection point, continuous injection 1.7 μL/min): 14.22
